Reference: patent publication US20100035793A1, “Modulators” (priority 2005, published 2010)

Key:
Stat3 [1] = target: T1, Stat3 (Homo sapiens, UniProt P40763); conditions: cited from earlier work
Target sequence in this assay (P40763 whole entry, species assumed): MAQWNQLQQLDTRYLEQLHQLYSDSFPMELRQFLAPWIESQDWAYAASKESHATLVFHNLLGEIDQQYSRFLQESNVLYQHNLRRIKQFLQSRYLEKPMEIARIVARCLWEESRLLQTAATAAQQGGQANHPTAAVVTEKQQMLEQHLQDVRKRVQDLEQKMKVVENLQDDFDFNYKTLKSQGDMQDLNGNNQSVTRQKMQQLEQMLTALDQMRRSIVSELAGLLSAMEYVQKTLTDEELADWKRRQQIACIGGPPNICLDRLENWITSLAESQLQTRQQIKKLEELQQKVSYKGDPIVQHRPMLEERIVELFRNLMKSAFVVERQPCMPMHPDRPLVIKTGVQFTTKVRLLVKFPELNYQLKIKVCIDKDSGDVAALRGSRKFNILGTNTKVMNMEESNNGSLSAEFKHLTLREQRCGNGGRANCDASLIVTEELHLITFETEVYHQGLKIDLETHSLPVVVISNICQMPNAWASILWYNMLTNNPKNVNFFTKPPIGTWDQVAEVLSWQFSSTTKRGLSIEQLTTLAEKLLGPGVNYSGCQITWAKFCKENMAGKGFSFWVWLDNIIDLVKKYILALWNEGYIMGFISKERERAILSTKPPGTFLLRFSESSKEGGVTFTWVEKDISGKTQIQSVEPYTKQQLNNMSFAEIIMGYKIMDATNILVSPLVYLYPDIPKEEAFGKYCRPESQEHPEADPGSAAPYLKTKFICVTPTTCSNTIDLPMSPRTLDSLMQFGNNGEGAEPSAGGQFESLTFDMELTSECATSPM

Stat3 [2] = target: T1, Stat3; test: Western blot of Stat3 phosphorylation and expression in KF48 treated with Cucurbitacin I; type: cell-based; parameters: primary fibroblasts derived from normal skin and keloid tissues were further examined; endogenous in cells; host or cells: KF48 primary keloid fibroblasts
Description: (§1) Inhibition of Stat3 was also evaluated by incubating KF48 for 30 min with various doses of Cucurbitacin I, an inhibitor of Jak2/Stat3 activation (32), or with DMSO alone as a control, followed by further incubation in normal growth media for 48 h. […] Cucurbitacin I was acquired from Galchimia (A Corufia, Spain).
(§2) Western blot. Cells were either harvested in radioimmune precipitation assay (RIPA) buffer (150 mM NaCl, 50 mM Tris-HCl, pH 7.2, 1% deoxycholic acid, 1% Triton X-100, 0.25 mM EDTA, pH 8.0) containing protease inhibitor cocktail (Roche Diagnostics Corporation, Indianapolis, Ind., USA), or lysis buffer containing 150 mM NaCl, 10 mM Tris-HCl, pH 7.4, 0.5% Triton-X-100, 0.5% NP-40, 1 mM EDTA, 0.2 mM sodium vanadate, supplemented with protease inhibitor tablet. Total cell lysates were collected after centrifugation for 10 min at 4° C., and resolved in 7.5% or 10% polyacrylamide gel electrophoresis, and transferred to PVDF membranes (Bio-Rad Laboratories, Hercules, Calif., USA). The membranes were blotted with anti-phosphoTyr705 Stat3 antibody (1:1000 dilution; Cell Signaling, Beverly, Mass., USA) overnight at 4° C. overnight in PBS containing 1% BSA and 0.1% Tween 20, washed with PBS containing 0.2% Tween 20, and incubated with secondary anti-rabbit IgG antibody (1:2000 dilution; Sigma, Saint Louis, Mo., USA) for 1 h at room temperature, washed with PBS containing 0.2% Tween 20, followed by enhanced chemiluminescence (Amersham Biosciences, Buckinghamshire, UK) or Lumi-Light (Roche Diagnostics Corporation, Indianapolis, USA), and autoradiography. The membranes were stripped with Restore Western Blotting Stripping Buffer (Pierce, Rockford, Ill., USA) according to manufacturer's instructions and reblotted with anti-phosphoSer727 Stat3 (1:1000 dilution; Cell Signaling, Beverly, Mass., USA) and secondary anti-mouse IgG antibody (1:2000 dilution; Sigma, Saint Louis, Mo., USA). The stripping and reblotting procedure was repeated with monoclonal anti-Stat3 (1:1000 dilution; BD Transduction Laboratories), polyclonal anti-actin (1:1000 dilution; Sigma) and monoclonal anti-collagen antibody (1:1000 dilution; MONOSAN).
Target sequence in this assay (P40763 whole entry): as the sequence (P40763 whole entry, species assumed) above

A549 tumor = conditions: nude mice; cited from earlier work
JAK2 = JAK2 (Homo sapiens, UniProt O60674); conditions: cited from earlier work
Sequence of JAK2 (O60674 whole entry, species assumed): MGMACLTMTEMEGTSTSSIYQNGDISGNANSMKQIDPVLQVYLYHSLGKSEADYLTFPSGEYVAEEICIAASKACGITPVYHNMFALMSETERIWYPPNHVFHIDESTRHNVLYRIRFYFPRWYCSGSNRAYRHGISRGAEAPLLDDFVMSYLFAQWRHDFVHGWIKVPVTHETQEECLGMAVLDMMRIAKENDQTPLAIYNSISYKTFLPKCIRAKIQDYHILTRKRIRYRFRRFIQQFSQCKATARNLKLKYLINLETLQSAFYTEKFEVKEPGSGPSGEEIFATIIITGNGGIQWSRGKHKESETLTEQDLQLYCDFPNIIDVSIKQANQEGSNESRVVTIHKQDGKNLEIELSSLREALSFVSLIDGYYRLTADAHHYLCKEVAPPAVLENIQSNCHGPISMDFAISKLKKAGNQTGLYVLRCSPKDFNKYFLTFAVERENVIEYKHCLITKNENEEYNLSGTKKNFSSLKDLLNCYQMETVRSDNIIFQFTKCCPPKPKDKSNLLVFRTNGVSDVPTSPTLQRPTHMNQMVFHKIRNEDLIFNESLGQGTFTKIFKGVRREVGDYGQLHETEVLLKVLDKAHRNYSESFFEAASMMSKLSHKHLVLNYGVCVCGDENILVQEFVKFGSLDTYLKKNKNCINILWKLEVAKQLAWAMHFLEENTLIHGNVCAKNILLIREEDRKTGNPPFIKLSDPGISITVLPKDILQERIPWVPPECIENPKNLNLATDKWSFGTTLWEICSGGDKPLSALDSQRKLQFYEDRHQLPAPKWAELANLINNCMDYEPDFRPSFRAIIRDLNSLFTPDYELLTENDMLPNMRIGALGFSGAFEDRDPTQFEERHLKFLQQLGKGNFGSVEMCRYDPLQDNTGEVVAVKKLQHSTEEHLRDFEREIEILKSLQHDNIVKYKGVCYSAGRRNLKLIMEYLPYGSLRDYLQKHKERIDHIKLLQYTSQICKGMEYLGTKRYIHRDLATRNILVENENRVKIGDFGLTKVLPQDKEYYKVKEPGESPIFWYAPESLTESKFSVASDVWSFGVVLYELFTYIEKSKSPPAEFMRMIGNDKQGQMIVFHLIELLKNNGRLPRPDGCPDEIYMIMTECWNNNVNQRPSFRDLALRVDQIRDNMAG

KF48 keloid fibroblasts [3] = test: Scratch-wound migration assay; type: cell-based, human
Description: Cell migration in keloidflbroblasts is inhibited by Stat3 siRNA and Cucurbitacin I. To examine the role of Stat3 in cell migration of skin fibroblasts, KF48 cells were infected with retrovirus expressing Stat3 siRNAs and scratch assays were performed as previously described. […] Three non-overlapping fields were acquired, and graphically illustrated as mean±SD in FIG. 8B. Transmembrane cell migration assays were also performed in triplicates as described earlier, and quantified as mean±SD (FIG. 8C). […] The right panels in FIG. 8B and 8C depict immunoblots of Stat3 and actin to show the efficiencies of inhibition by the Stat3 siRNAs.
The role of Stat3 in cell migration was also examined using Cucurbitacin I in the scratch assay. KF48 cells were first incubated with 10 μg/ml mitomycin C for 2 h, before treating for 30 min with DMSO or 1 μM Cucurbitacin I. The scratch-wound was performed, followed by further incubation in normal growth media. Pictures were taken at 0 h, 22 h and 48 h after wounding.
Migration assay. For migration assay using the scratch method, cells were grown to confluence and incubated with 10 μg/ml mitomycin C for 2 h, before a scratch wound was introduced using a yellow pipette tip. Cells were further incubated in normal growth media and pictures were taken at 0 h, 14 h, 15 h, 22 h, or 48 h after wounding. Three non-overlapping fields were captured by Axiovert 135 microscope from Zeiss and cells migrated into the wound site were counted and presented as mean±SD.

[4] = tested on: A549 human lung carcinoma cells; parameters: dose or concentration left out as unconfirmed; conditions: Cucurbitacin I for 24 h; cited from earlier work
collagen = test: Western blot of collagen production in KF48 keloid fibroblasts; type: cell-based, human; conditions: KF48, Cucurbitacin I 30 min then 48 h in growth media, FIG. 5B
Description: These vectors containing Stat3 siRNA targets and empty vector were transfected into 293T-based Phoenix-Ampho packaging cell line for 7-9 h, and the amphotropic retroviruses were harvested 48 h later, pelleted to remove nonadherent cells and cellular debris, and filtered through a […] cellulose acetate membrane. The keloid fibroblasts were infected overnight in the presence of 4 μg/ml polybrene, and replaced with fresh 10% FBS/DMEM the following day. Cells were assayed for Western blot 48 h after infection, or for XTT cell proliferation, or for migration assay which was performed by replating the cells into 8 μM Transwell membrane and fixed 24 h later as described above.
as §1
as §2, with “The membranes were stripped with Restore Western Blotting Stripping Buffer (Pierce, Rockford, Ill., USA) according to manufacturer's instructions and reblotted with anti-phosphoSer727 Stat3 (1:1000 dilution; Cell Signaling, Beverly, Mass., USA) and secondary anti-mouse IgG antibody (1:2000 dilution; Sigma, Saint Louis, Mo., USA). The stripping and reblotting procedure was repeated with monoclonal anti-Stat3 (1:1000 dilution; BD Transduction Laboratories), polyclonal anti-actin (1:1000 dilution; Sigma) and monoclonal anti-collagen antibody (1:1000 dilution; MONOSAN).” left out
Methods of assessing polypeptides regulated by STAT Collagen may be regulated by STAT 3 activation. monoclonal anti-human collagen I, II, III Was purchased from MONOSAN (Uden, Netherlands). […] These were detected via western blot as described above.

KF48 keloid fibroblasts [5] = test: XTT proliferation assay; type: cell-based, human
Description: Inhibition of Stat3 decreases cell proliferation. Enhanced fibroblast proliferation is a characteristic of keloid tissue. In agreement with this, keloid fibroblasts grown in normal culture conditions proliferated faster than normal fibroblasts, as observed in KF48 and KF107 compared to NF2 and NF4 (FIG. 6A). To investigate whether Stat3 is involved in the enhanced keloid fibroblast proliferation, KF48 was infected with retrovirus expressing Stat3 siRNAs, and cell proliferation was examined. […] XTT proliferation assay. Cells seeded at 3,000 cells/well in 96-well plates and grown in normal growth conditions, or infected with retroviral Stat3 siRNAs, were assayed for proliferation using the XrT proliferation kit (Roche) according to the manufacturer's instructions. The readings were taken at 450 nm and referenced against 690 nm, 2 h after the addition of the XrT reagent. Each sample was performed at quadruplicates in two to three independent experiments. Data are presented as mean±SD
Cell proliferation was also investigated by treating KF48 cells with various doses of Cucurbitacin I or with DMSO control, before incubating in normal growth media and examined daily over 4 days. Cucurbitacin I concentration as low as I μM was able to inhibit cell proliferation of KF48 compared to DMSO and untreated control (0 μM), whereas Cucurbitacin I exposure at 5 μM and above seemed to cause cell death (FIG. 6C).

[6] = KF48, 30 min treatment then 48 h in growth media, FIG. 5B

For `CC(C)(O)/C=C/C(=O)[C@](C)(O)[C@H]1[C@H](O)C[C@@]2(C)[C@@H]3CC=C4[C@@H](C=C(O)C(=O)C4(C)C)[C@]3(C)C(=O)C[C@]12C` [Cucurbitacin I], the “inhibition of activation of STAT 3” value (Stat3 [1]) is listed as “inhibit”, the “effective concentration as low as (inhibition of pY705 Stat3, pS727 Stat3 and collagen production)” value (Stat3 [2]; KF48, 30 min treatment then 48 h) is listed as 1 μM and the Stat3 expression (Stat3 [2]; KF48, 30 min treatment then 48 h, FIG. 5B) is listed as “dose-dependent decrease”. The “inhibition of pS727 Stat3” value (Stat3 [2]; [6]) was “dose-dependent inhibition”, the “inhibition of pY705 Stat3” value (Stat3 [2]; [6]) was “dose-dependent inhibition” and the “inhibition of A549 tumor growth” value (A549 tumor) was 55.4%. The “inhibition of activation of JAK2” value (JAK2) was “inhibit”, the “potency on pJak2 relative to pSTAT 3” value (JAK2) was “more potent inhibitor of pJak2 than pSTAT 3” and the “cell migration at 22 h” value (KF48 keloid fibroblasts [3]; 1 μM for 30 min, 22 h after wounding, vs DMSO, P<0.001) was “significant reduction in cell migration”. The “cell migration at 48 h” value (KF48 keloid fibroblasts [3]; 1 μM for 30 min, 48 h after wounding, vs DMSO) was “delayed migration”, the “migration of KF48, scratch assay” value (KF48 keloid fibroblasts [3]; 1 μM for 30 min, compared to DMSO control, FIG. 8D) was “decelerated the migration” and the “concentration as low as, effective in decreasing rate of migration to that of normal fibroblasts” value (KF48 keloid fibroblasts [3]; keloid fibroblasts) was 1 µM. For the same compound, the apoptosis [4] was 9.8%, the tumor cell death [4] was 33% and the “inhibition of collagen production” value (collagen) was “dose-dependent inhibition”. The “exposure that seemed to cause cell death” value (KF48 keloid fibroblasts [5]; KF48, FIG. 6C) was ≥ 5 µM, the “concentration as low as, able to inhibit cell proliferation” value (KF48 keloid fibroblasts [5]; KF48, examined daily over 4 days, vs DMSO and untreated) was 1 µM and the “observations at higher doses” value (KF48 keloid fibroblasts [5]; higher doses, FIGS. 6C and 8D) was “cell morphology changes and the beginning of some cell death”.
